Six compounds from publication PMC7872956, “Fucosidases from the human gut symbiont Ruminococcus gnavus” (Cellular and Molecular Life Sciences: CMLS, 2020) can be followed below.

The target in experiment [1] is T1, GH29 fucosidase E1_10125 (Mediterraneibacter gnavus, UniProt A0A6N3BKT0, D236A).
T1 construct: gene hypBA2
T1 sequence (A0A6N3BKT0 35-583 D236A): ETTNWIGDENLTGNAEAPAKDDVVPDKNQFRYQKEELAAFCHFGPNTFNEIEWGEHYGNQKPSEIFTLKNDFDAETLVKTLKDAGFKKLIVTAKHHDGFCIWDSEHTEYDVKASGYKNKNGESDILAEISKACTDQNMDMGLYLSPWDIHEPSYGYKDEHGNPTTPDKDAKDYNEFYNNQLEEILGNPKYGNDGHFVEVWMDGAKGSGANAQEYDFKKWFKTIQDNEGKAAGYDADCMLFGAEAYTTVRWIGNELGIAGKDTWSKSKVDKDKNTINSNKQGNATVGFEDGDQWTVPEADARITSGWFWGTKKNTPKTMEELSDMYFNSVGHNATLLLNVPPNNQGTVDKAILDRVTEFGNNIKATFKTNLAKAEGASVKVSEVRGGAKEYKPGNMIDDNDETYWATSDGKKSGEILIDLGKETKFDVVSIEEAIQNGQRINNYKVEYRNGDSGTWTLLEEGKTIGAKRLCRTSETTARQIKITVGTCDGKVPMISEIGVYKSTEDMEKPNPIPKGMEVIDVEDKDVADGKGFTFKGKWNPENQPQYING
As to the kind of experiment: STD NMR binding epitope mapping.

Experiment [2] deals with T1, GH29 fucosidase E1_10125. As to the kind of experiment: X-ray crystal structure ([…] Å) and ITC. In kind it is binding.
In experiment [3] the target is T2, GH29 fucosidase E1_10125 (Mediterraneibacter gnavus, UniProt A0A6N3BKT0, D236A).
T2 construct: gene hypBA2
Nature of the experiment: ITC; also STD NMR. It counts as binding.

The structures appear in SMILES notation.

What is called Kd is the constant that tells how readily two partners part at equilibrium. A high value points to lower affinity.

For the compound `C[C@@H]1O[C@@H](O[C@H]2[C@H](O[C@@H]3O[C@H](CO)[C@H](O)[C@H](O)[C@H]3O)[C@@H](CO)OC(O)[C@@H]2O)[C@@H](O)[C@H](O)[C@@H]1O` (stereo partly drawn) [3FL], the “STD NMR binding epitope mapping” value at GH29 fucosidase E1_10125 [1] was “The enzyme intimately recognized the three sugar residues constituting 3FL and LeA”.
As to `C[C@@H]1OC(O)[C@@H](O)[C@H](O)[C@@H]1O` (stereo partly drawn) [Fuc, L-fucose], the Kd on GH29 fucosidase E1_10125 [2] is 21.7 µM.
Turning to `CC(=O)N[C@H]1C(O)O[C@H](CO)[C@@H](O[C@@H]2O[C@@H](C)[C@@H](O)[C@@H](O)[C@@H]2O)[C@@H]1O[C@@H]1O[C@H](CO)[C@H](O)[C@H](O)[C@H]1O` (stereo partly drawn) [LeA, Lewis A], the “STD NMR binding epitope mapping” value on GH29 fucosidase E1_10125 [1] is “The enzyme intimately recognized the three sugar residues constituting 3FL and LeA”.
On to `CC(=O)N[C@H]1C(O)O[C@H](CO)[C@@H](O[C@@H]2O[C@H](CO)[C@H](O)[C@H](O)[C@H]2O)[C@@H]1O[C@@H]1O[C@@H](C)[C@@H](O)[C@@H](O)[C@@H]1O` (stereo partly drawn) [LeX, Lewis X], for which the Kd at GH29 fucosidase E1_10125 [3] was found to be 51.4 ± 1.93 µM.
On the same count and under the same terms, next, `CC(=O)N[C@H]1[C@H]([C@H](O)[C@H](O)CO)O[C@@](O[C@H]2[C@@H](O)[C@@H](CO)O[C@@H](O[C@H]3[C@H](O[C@@H]4O[C@@H](C)[C@@H](O)[C@@H](O)[C@@H]4O)[C@@H](NC(C)=O)C(O)O[C@@H]3CO)[C@@H]2O)(C(=O)O)C[C@@H]1O` (stereo partly drawn) [sLeX, 3′-Sialyl Lewis X]: 3.59 ± 0.48 µM.
Turning to `CC(=O)N[C@H]1C(O)O[C@H](CO)[C@@H](O[C@@H]2O[C@H](CO)[C@H](O)[C@H](O[C@H]3O[C@H](CO)[C@H](O)[C@H](O)[C@H]3O)[C@H]2O)[C@@H]1O[C@@H]1O[C@@H](C)[C@@H](O)[C@@H](O)[C@@H]1O` (stereo partly drawn) [αGal-LeX, α1–3Gal-Lewis X], the Kd at GH29 fucosidase E1_10125 [3] came out at 47.1 ± 5.6 µM.
